The values that follow come from patent US20120141461A1, “COMPOSITIONS AND METHODS FOR DIAGNOSING AND TREATING FIBROTIC DISORDERS” (THE REGENTS OF THE UNIVERSITY OF MICHIGAN, priority 2009, published 2012).

One assay relates to C57BL/6 mice. Briefly: Murine model of bleomycin-induced lung injury/fibrosis. Format: in vivo, mouse. Here is the method: RNA was extracted and expression of NOX4 mRNA analyzed by real-time PCR; (b) C57BL/6 mice were administered intra-tracheal (IT) bleomycin on day 0.
C57BL/6J mice (6-8 weeks of age; Jackson Laboratories, Bar Harbor, Me.) were anesthetized with intraperitoneal injection of ketamine and xylazine. Intra-tracheal bleomycin (0.025 U) or FITC (4.67 mg/ml suspension in PBS) was administered to induce lung injury. The University of Michigan Committee on the Use and Care of Animals approved the animal protocols.
(§1) For in vitro RNAi, cells were transfected with single duplexes targeting NOX4 or non-targeting control siRNA (100 nM) using Lipofectamine-2000 reagent. For in vivo RNAi studies, NOX4 siRNA or control nontargeting siRNA (Dharmacon Inc.) were administered at a dose of ˜50 μg per mouse by intratracheal injection with bleomycin, FITC, or saline, in a total volume of 50 μl using a 26-gauge needle.
(§2) Cell lysates were prepared in RIPA buffer, subjected them to SDS-PAGE under reducing conditions and performed western immunoblotting as previously described (Horowitz et al. J Biol Chem 279, 1359-1367 (2004), herein incorporated by reference in its entirety).
Acid-soluble collagen was measured in cell culture supernatants or whole lung homogenates using the Sircol assay as previously described (Vittal et al. Am J Pathol 166, 367-375 (2005), herein incorporated by reference in its entirety).
Murine whole lungs were homogenized in PBS, then acidified (by adding an equal volume of 12 N HCl), hydrolyzed (by heating at 120° C. for 24 h), and processed samples for hydroxyline measurements as previously described 29. Lung histology and immunohistochemical staining Paraffin embedded tissue sections were processed for lung histology and immunohistochemical staining as previously described described (Vittal et al. Am J Pathol 166, 367-375 (2005), herein incorporated by reference in its entirety).

Assay [1] has as its system human fetal lung mesenchymal cells (hFLMCs). Briefly: TGF-β1-induced collagen gel contractility of hFLMCs in 3D-collagen matrices. Format: cell-based. As to conditions: catalase at 750 U/ml. How it is done: (§3) Collagen gels were reconstituted by mixing 1 part of 3 mg/ml neutralized rat tail collagen type 1 and two parts of cell suspension in serum-free media. Cell suspensions were seeded at a density of 200,000 cells per ml into 24-well tissue culture plates and allowed the gels to polymerize at 37° C. for 1 h before adding 1 ml of media. Gels were incubated overnight prior to treatments, and gently detached the edge of the gels from the walls of the well using a sterile spatula. Gels were photographed and gel area was measured using ImageJ (NIH) software.

The test system is the same in assay [2]. Briefly: Myofibroblast differentiation markers in hFLMCs in 3D-collagen matrix, Western immunoblotting. Format: cell-based. As to conditions: catalase 750 U/ml, TGF-β1 2 ng/ml x 16 h. Here is the method: as §3, §1, §2
[3] abbreviates: DPI 1.6 mg/kg daily intra-peritoneal on days 8 to 21, day 21.

On to `c1ccc2c(c1)[I+]c1ccccc1-2` [DPI, diphenyleneiodonium chloride], for which, in the assay on C57BL/6 mice (DPI 1.6 mg/kg daily intra-peritoneal on days 8 to 21, Sircol assay on day 21), the “protection from fibrosis, acid-soluble collagen in whole lung” value is “significant protection from fibrosis”. Further, in the assay on C57BL/6 mice (setting [3]), the “expression of NOX4 and α-SMA expressing myofibroblasts (IHC)” value was “reduced expression”; the “fibrosis by histopathology and Masson's trichrome staining for collagen” value is recorded as “reduced fibrosis”.

B1: catalase: an enzyme which reduces H2O2 to H2O (protein, UniProt P04040 2-527, looked up)
Catalase: ADSRDPASDQMQHWKEQRAAQKADVLTTGAGNPVGDKLNVITVGPRGPLLVQDVVFTDEMAHFDRERIPERVVHAKGAGAFGYFEVTHDITKYSKAKVFEHIGKKTPIAVRFSTVAGESGSADTVRDPRGFAVKFYTEDGNWDLVGNNTPIFFIRDPILFPSFIHSQKRNPQTHLKDPDMVWDFWSLRPESLHQVSFLFSDRGIPDGHRHMNGYGSHTFKLVNANGEAVYCKFHYKTDQGIKNLSVEDAARLSQEDPDYGIRDLFNAIATGKYPSWTFYIQVMTFNQAETFPFNPFDLTKVWPHKDYPLIPVGKLVLNRNPVNYFAEVEQIAFDPSNMPPGIEASPDKMLQGRLFAYPDTHRHRLGPNYLHIPVNCPYRARVANYQRDGPMCMQDNQGGAPNYYPNSFGAPEQQPSALEHSIQYSGEVRRFNTANDDNVTQVRAFYVNVLNEEQRKRLCENIAGHLKDAQIFIQKKAVKNFTEVHPDYGSHIQALLDKYNAEKPKNAIHTFVQSGSHLAAREKANL
B1: the “TGF-β1-induced collagen gel contractility” value in assay [1] is on record as “inhibited”. Also, in assay [2], the “fibronectin synthesis induced by TGF-β1” value was “inhibited” and the “upregulation of α-smooth muscle actin (α-SMA) induced by TGF-β1” value is “inhibited”.
